Consider 36 compounds from a melting point compilation (Tetko et al.; mined from patent text by program, amines drawn as free bases though some values may be those of a salt).

What is called melting point is the temperature of the solid-liquid transition. Consider `Cc1ccc2c(NCc3ccc(NC(=O)c4ccc(F)cc4)cc3)nc(N3CCN[C@@H](C)C3)nc2c1`, for which the melting point fell in the range of 200 to 202 °C. With `CC(Br)c1ccc(C(=O)c2cccs2)cc1` (stereo unspecified) the figure was 71.1 °C; with `FC(F)(F)c1cc2ccccc2n1Cc1ccccc1`, 20 °C; with `CCOC(=O)C1CCc2c([nH]c3ccc(C)cc23)C1` (stereo unspecified), 117 to 118 °C. With `O=c1[nH]c2ccc(Cl)cc2n1-c1ccc(Cl)cc1` the figure was 239 °C; with `CCCCC(CC)Cn1c(C)cc(C)c(C#N)c1=O` (stereo unspecified), 84 to 89 °C. With `CCOC(=O)CCc1cc(O)nn1C1CCCCC1` the figure was 173 to 174 °C; with `O=Cc1ccc2ccn(C3CCN(CCc4ccccc4F)CC3)c2c1`, 130 to 131 °C. As for `Cc1nc(-c2ccc(Cl)cc2C(=O)c2ccccc2)n[nH]1`, the melting point is 148 to 150 °C.

As for `CCCc1nn(-c2ccc(C(F)(F)F)cn2)cc1CCCOc1ccc(CC(=O)O)cc1OC`, the melting point lay in the range of 121 to 122 °C. As for `CSCCOC(=O)N(C)c1nnc(-c2cncc(F)c2)s1`, the figure is 104 to 106 °C. As for `Cc1nc2cc(C(=O)NC(C)C)c(NC(=O)c3cc(C(F)(F)F)nn3-c3ncccc3Cl)c(Cl)c2nc1C`, the figure is 243 to 244 °C; as for `Cc1ccc(O[C@@H](Cc2ccc(O)cc2)C(=O)N2C(=O)OC[C@@H]2Cc2ccccc2)cc1`, 135 to 136 °C; as for `COc1ccc(OCCO)c(C=O)c1`, 68 to 72 °C.

Turning to `Cn1ccnc1Sc1ccc2[nH]nc(N)c2c1`, the melting point is 174 °C. With `CC(C)(C)OC(=O)NOCC(=O)NNC(=O)c1cc(S(=O)(=O)O)cc(O)c1O` the figure was 148 to 150 °C; with `Cc1ccc2c(N=[N+]=[N-])c(C(=O)O)cnc2n1`, 198 °C; with `N#Cc1nc(F)c(Cl)c(F)c1Cl`, 78 to 79 °C. As for `O=C1OC(=Nc2ccc(Cl)cc2F)C2=C1CCCC2`, the figure is 81 to 84 °C; as for `CC(C(N)=O)c1ccc2c(c1)CCc1ccccc1O2` (stereo unspecified), 122 to 123 °C. With `FC(F)(F)c1ccc(-c2cc3ncnc(Nc4ccc5[nH]ccc5c4)c3s2)cc1` the figure was 181 to 194 °C; with `O=C1c2ccc(Cl)cc2CCc2c(O)cccc21`, 185 °C. In turn, `OCCc1ccc(COc2cccc(-c3c(-c4ccccc4)cnc4c(C(F)(F)F)cccc34)c2)cc1` registered a melting point of 50 °C.

As for `Cc1ccccc1CNC(=O)N1Cc2ccccc2-n2nc(C(C)(C)C)cc21`, the melting point fell in the range of 180 to 181 °C.

`C#CCN(C(=O)c1cnccc1C(F)(F)F)S(=O)(=O)c1cccc(Cl)c1` displayed a melting point of 82 to 85 °C.

As for `CC(C)C(C(=O)O)c1ccc(O)cc1` (stereo unspecified), the melting point lay in the range of 172 to 174 °C. As for `O=C(O)C1CC(C(=O)O)C(C(=O)O)C1C(=O)O` (stereo unspecified), the figure is 186 °C; as for `CCCCCC(=N)NC(=S)Nc1ccc(Cl)cc1`, 100 to 102 °C; as for `COC(=O)c1ccc(-c2nc(-c3ccc(OC(F)F)cc3)co2)cc1`, 160 to 161 °C. With `CCCc1nn(-c2ccc(C(F)(F)F)cn2)cc1CCCOc1ccc(OC)c(CC(=O)O)c1` the figure was 135 to 136 °C; with `NNc1cc2c(nn1)CCN(C(=O)c1cccc(Cl)c1)C2`, 178 to 180 °C; with `O=C(Nc1ccc2ccc(Cl)nc2n1)c1ccc(Cl)c(Cl)c1`, 230 °C. With `CNC(=O)N1N=C(c2ccc(N)cc2)c2ccc(Cl)cc2CC1C` (stereo unspecified) the figure was 134 to 136 °C; with `COc1ccc2[nH]c(S(=O)Cc3cc(N4CCCCC4)ncn3)nc2c1` (stereo unspecified), 98 to 101 °C; with `CCCc1nc2c(N)nc3ccccc3c2n1CCC1(O)CCOCC1`, 181 to 183 °C. The compound `COc1ccc(C(=O)Cc2c(Cl)cncc2Cl)c2cc(C(=O)N3CCN(C)CC3)oc12` had a melting point of 160 to 161 °C.
